Literature values as cited in patent US5180744A, “Aralkyl-N-terminal amino hydroxy” (G. D. Searle & Co., priority 1991, dated 1993).
Square brackets hold non-standard residues; d marks the D form. Peptide text beside a SMILES is read from it. * marks the point of attachment. Sta = CC(C)C[C@H](N)[C@@H](O)CC(=O)O; Isovaleryl = CC(C)CC(=O)*

Test system: hog renin
Settings: after the injection of hog renin into nephrectomized rats

CC(C)CC(=O)N[C@H](C(=O)N[C@H](C(=O)N[C@@H](CC(C)C)[C@@H](O)CC(=O)N[C@@H](C)C(=O)N[C@@H](CC(C)C)[C@@H](O)CC(=O)O)C(C)C)C(C)C [pepstatin] (Isovaleryl-VV[Sta]A[Sta]-OH)
blood pressure in vivo: reduce blood pressure in vivo
